Assay results from patent US12152038B2, “Vasopressin receptor antagonists and products and methods related thereto” (Neumora Therapeutics, Inc., priority 2017, dated 2024).
Read-outs that look alike come from different tables or passages of the source.

Tests used:
[1] = target: T1, human Oxytocin Receptor (hOTR) (Homo sapiens, UniProt P30559); assay: Oxytocin receptor (OTR) antagonist assay (FLIPR calcium, CHEM-1-hOTR cells); format: cell-based
T1 construct: host or cells: CHEM-1 (ready-to-assay frozen cells)
T1 sequence (P30559 1-389): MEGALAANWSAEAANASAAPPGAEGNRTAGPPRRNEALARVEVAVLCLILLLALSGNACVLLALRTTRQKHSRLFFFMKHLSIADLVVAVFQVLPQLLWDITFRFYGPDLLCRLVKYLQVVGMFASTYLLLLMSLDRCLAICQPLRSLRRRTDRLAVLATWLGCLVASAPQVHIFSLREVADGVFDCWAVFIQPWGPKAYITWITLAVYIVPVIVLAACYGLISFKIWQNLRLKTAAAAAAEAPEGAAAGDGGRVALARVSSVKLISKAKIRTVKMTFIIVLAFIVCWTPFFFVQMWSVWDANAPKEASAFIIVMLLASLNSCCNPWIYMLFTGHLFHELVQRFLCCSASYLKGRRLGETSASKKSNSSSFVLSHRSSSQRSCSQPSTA
Method: This assay was performed in CHEM-1 cells expressing the human Oxytocin Receptor (hOTR) to determine the inhibitory effect of the compounds of the invention on the human Oxytocin receptor. Oxytocin evokes an increase in intracellular calcium in CHEM-1-hOTR cells which is measured in a fluorescence assay on the FLIPR^TETRA using calcium sensitive dyes. Test compounds were assessed for their ability to affect the magnitude of the response to oxytocin, with antagonists showing a concentration-dependent reduction in the oxytocin-mediated fluorescence.
CHEM-1-hOTR ready was used to assay frozen cells (Eurofins #HTS09ORTA) which are supplied with a proprietary Media Component.
Day 1 of the assay: Cells were thawed in a 37° C. water bath and diluted with the supplied Media Component to a final volume of 10 ml. The cell suspension was centrifuged at 1000 rpm for 3 min at room temperature and the supernatant was discarded. The cell pellet was resuspended in Media Component (10.5 ml) and the cells (25 μL) were dispensed into a poly-D-lysine coated black, clear bottomed, 384-well plate. The plates were incubated overnight at 37° C., 5% CO2.
Day 2: At the start of each assay day the potency of oxytocin was assessed and an EC80 concentration was determined for subsequent compound profiling. Assays were performed using a two-step addition protocol on the FLIPR^TETRA; first addition of 5 μl of control or test compound at 10× final in assay buffer with 15 min incubation at 37° C., 5% CO2 followed by 10 μl of oxytocin at 6× final concentration in assay buffer. Changes in fluorescence were monitored for 3 min after both additions on the FLIPR^TETRA using 470-495 nm excitation and 515-575 nm emission wavelengths. The assay buffer consisted of HBSS (+Ca/+Mg) supplemented with 20 mM HEPES, and for the preparation of the oxytocin agonist only, 0.1% w/v bovine serum albumin. The assay was initiated by the removal of growth media from the cells and replaced with 45 μl of Calcium-6 dye (Molecular Devices) prepared at 1× in assay buffer. Cells were loaded with dye for 60-90 min at 37° C., 5% CO2 before initiation of the FLIPR^TETRA protocol. […] For compound profiling, test compounds were first serially diluted in DMSO (10-point curve, 1:3 dilutions) then diluted 33.3-fold in assay buffer prior to addition to the dye loaded cells on the FLIPR^TETRA. At the end of the incubation period 10 μl of oxytocin in assay buffer containing 0.1% BSA was added at the previously determined EC80 concentration.
In-plate controls for the assay included a L-368,899 concentration-response curve as the reference OTR antagonist and an oxytocin concentration-response curve to confirm the reproducibility of the EC80 used for the compound challenge.

[2] = target: T2, human Arginine Vasopressin Receptor 1a (AVPR1a) (Homo sapiens, UniProt P37288); assay: Vasopressin V1a receptor antagonist assay (FLIPR calcium, CHO-AVPR1a cells); format: cell-based
T2 construct: expressed in transfected cells; host or cells: CHO (CHO-AVPR1a, kept under G418 selection)
Method in brief: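 CHO cells expressing human AVPR1a were loaded with Calcium-6 dye and preincubated with compound for 15 min at 37° C. Cells were then challenged with AVP at its daily-determined EC80, and FLIPR fluorescence was read. Compounds were tested in duplicate as 10-point 1:3 dilutions from a top final concentration of 3 μM.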

Male CD-1 mice = assay: AVP induced scratching, digging and grooming behavior in mouse; format: in vivo; settings: 100 mg/kg, po; AVP i.c.v.; 15 minutes observation
Source text: Administration of Arginine-Vasopressin (AVP) intracerebroventricularly (i.c.v.) elicits characteristic scratching, digging and grooming behavior in mice that can be measured readily and is sensitive to blockade with vasopressin antagonists (Meisenberg, Ann N Y Acad Sci. 525:257-69, 1988; Bleickardt et. al., Psychopharmacology (Berl). 202(4):711-8, 2009).
Male CD-1 mice (Charles River Germany) weighing 22-25 g upon the study in-life were used for this study. Animals were housed in groups of 4-5 per cage in standard temperature (22±1° C.) and light-controlled environment (lights on from 7 am to 8 pm), with ad libitum access to food and water. Prior to commencing any procedures to the mice, they were allowed to habituate in the vivarium for a minimum of 7 days. Anesthesia was induced in a plexiglass chamber for 2-3 min with 5% isoflurane and maintained through a snout mask with 1-2% isoflurane thereafter. A homeothermic blanket system with a rectal probe was used to monitor and maintain the animal's body temperature at 37.0° C.±1.5° C. during the operation. Anesthetized mice were placed in a stereotaxic apparatus and skin between the ears shaved and disinfected with povidone-iodine solution (Betadine). A 10-μl Hamilton syringe with 28-gauge needle was used for the i.c.v. injections. All animals receive identical AVP injections (3.689 μM) or sterile saline (0.9% sodium chloride solution) into the right lateral ventricle at the following coordinates: AP=+0.5 mm; ML=+1.0 mm; DV=−2.5 mm (approximately from bregma). The actual coordinates were calculated by the distance from the point in midline between the eyes and no skin incision was made. […]
Mice were observed and video-recorded for 15 minutes following AVP/saline administration and behaviors were measured (in seconds) and a cumulative time was calculated. […] Using this assay, balovaptan (100 and 300 mg/kg, po), JNJ-17308616 (30, 100 mg/kg, po) and Compound No. 1-83B (100, 300, 500 mg/kg, po) were evaluated for antagonist activity to AVP-induced scratching behaviors.

V1a receptors = target: T3, V1a receptors (Rattus norvegicus, UniProt P30560); assay: AVP induced phospho-ERK measurement in rat choroid plexus (RCP) cells; format: cell-based; settings: RCP cells stimulated with AVP, pERK1/2 to total ERK1/2 ratio
T3 construct: Rat choroid plexus (RCP) cell lines express functional V1a receptors; endogenous in cells; host or cells: rat choroid plexus (RCP) cell line, RCP P9(18)
Method: Rat choroid plexus (RCP) cell lines express functional V1a receptors measured by increased calcium concentrations in response to V1a receptor agonists (Battle et al., Biochem. Biophys. Res. Comm. 2000).
RCP P9(18) cells were seeded 30K/well, in 100 μl growth medium containing 10% FBS in polystyrene 96-well plates and incubated at 37° C., 5% CO2 and incubated overnight. The following day, the growth medium was replaced with 50 μl pre-warmed HBSS containing 20 mM HEPES and the cells were incubated at 37° C., 5% CO2 for 1.5 hrs. 1 mM AVP (Sigma V9879) was freshly prepared in distilled water in a glass vial and diluted to 3× concentrations in HBSS containing 20 mM HEPES and 0.1% BSA in glass vials and kept on ice. […] Final concentrations of AVP: 10, 100 or 1000 nM. […] Cells were lysed with 25 μl 4×CST lysis buffer containing protease and phosphatase inhibitors, PMSF and SDS and then stored at −80° C., for 48 h. The lysates were thawed, centrifuged at 2000 g for 30 min at 4° C. and 40 μl supernatants assayed for pERK1/2 (Thr202/Tyr204; Thr185/Tyr187) and total ERK1/2 using MSD kit K15107D. The MSD ECL data for the lysates were corrected for no cell blanks, then phospho-protein levels expressed as a ratio to the total ERK1/2 level. The ratios were expressed as fold-change from the vehicle-treated control at each timepoint.

MDR1 (P-glycoprotein) = target: T4, MDR1 (P-glycoprotein) (Homo sapiens, UniProt P08183); assay: MDR1-MDCK permeability and efflux assay (Papp, efflux ratio, effective efflux ratio); format: in vitro ADME; settings: dog; for Papp A→B at 1 h, 10 μM: pH 7.4, read-out: Papp AB MDR1
T4 construct: host or cells: MDCK (MDR1-MDCK; wild-type MDCK as comparator)
Method: (§1) The MDR1-MDCK effective efflux assay was performed as described in the BioFocus Standard Operating Procedure, ADME-SOP-56. Both wild-type (WT) and MDR1-MDCK cells (Solvo Biotechnology) were seeded onto 24-well Transwell plates at 2.35×10^5 cells per well and used in confluent monolayers after a 3 day culture at 37° C. under 5% CO2. For both cell types, test and control compounds (propranolol, vinblastine) were added (10 μM, 0.1% DMSO final, n=2) to donor compartments of the Transwell plate assembly in assay buffer (Hanks balanced salt solution supplemented with 25 mM HEPES, adjusted to pH 7.4) for both apical to basolateral (A>B) and basolateral to apical (B>A) measurements. Incubations were performed at 37° C., with samples removed from both donor and acceptor chambers at T=0 and 1 hour and compound analysed by mass spectrometry (LC-MS/MS) including an analytical internal standard.
(§2) Apparent permeability (Papp) values were determined from the relationship: Papp=[CompoundAcceptor T=end]×V Acceptor/([Compound Donor T=0]×V Donor)/incubation time×V Donor/Area×60×10^−6 cm/s
(§3) In this equation, V is the volume of each Transwell compartment (apical 125 μL, basolateral 600 μL), and concentrations are the relative MS responses for compound (normalized to internal standard) in the donor chamber before incubation and acceptor chamber at the end of the incubation, and Area is the area of cells exposed for drug transfer (0.33 cm^2).
(§4) Efflux ratios (Papp B>A/Papp A>B) were calculated for each compound from the mean Papp values in each direction for both wild-type and MDR1-MDCK cells.
(§5) In order to confirm the involvement of MDR1 in any efflux seen, an “effective efflux ratio” (EER) was calculated by comparing compound efflux ratios (ER) in the two cell types by the following equation: EER=ER(MDR1-MDCK)/ER(wild-type MDCK)
(§6) This ratio illustrates the effect of the over-expressed MDR1 normalised for the background movement of compound through the wild-type cells.
(§7) Lucifer Yellow (LY) was added to the apical buffer in all wells to assess viability of the cell layer. […] Recoveries<50% indicates compound solubility, stability or binding issues, thereby reducing the reliability of a result.
(§8) The inherent ability of a potential drug molecule to penetrate the blood brain barrier and avoid efflux by transporters expressed in the brain, can be roughly correlated with the Papp(A-B) and the efflux ratio (as defined above), respectively. A potential drug molecule with an apparent permeability<7 (10^−6 cm/sec) has low permeability (+), >7 (10^−6 cm/sec) but <10 (10^−6 cm/sec) has moderate permeability (++), >10 (10^−6 cm/sec) but <20 (10^−6 cm/sec) has good permeability (+++), and >20 (10^−6 cm/sec) is highly permeable (++++). High permeability in the WT and MDCK II cell permeability assay increases the probability of blood brain barrier penetration and access to the CNS. A potential drug molecule in the above assay system with an efflux ratio or effective efflux ratio of <1 has low probability of being an efflux substrate (++++), >1 but <2 has moderate probability of being an efflux substrate (+++), >2 but <3 has has an increased probability of being an efflux substrate (++), and >3 has a high probability of being an efflux substrate (+). If a potential drug molecule is an efflux substrate, the molecule will have a low probability of reaching exposures in the brain (site of action) that will result in efficacious levels of receptor occupancy.

[3] = Wild-type MDCK permeability and efflux assay (Papp, efflux ratio); format: in vitro ADME; settings: dog, pH 7.4, wild-type MDCK cells; for efflux ratio at 1 h, 10 μM: Papp B>A/Papp A>B, read-out: ER WT (Efflux Ratio)
Method: as §1, §2, §3, §4, §5, §6, §7, §8

[4] = MDCK-MDR1, pH 7.4, ER(MDR1-MDCK)/ER(wild-type MDCK), read-out: EER (Effective Efflux Ratio)
[5] = MDCK-MDR1, pH 7.4, Papp B>A/Papp A>B, MDR1-MDCK cells, read-out: ER MDR1 (Efflux Ratio)

T4 sequence (P08183 whole entry): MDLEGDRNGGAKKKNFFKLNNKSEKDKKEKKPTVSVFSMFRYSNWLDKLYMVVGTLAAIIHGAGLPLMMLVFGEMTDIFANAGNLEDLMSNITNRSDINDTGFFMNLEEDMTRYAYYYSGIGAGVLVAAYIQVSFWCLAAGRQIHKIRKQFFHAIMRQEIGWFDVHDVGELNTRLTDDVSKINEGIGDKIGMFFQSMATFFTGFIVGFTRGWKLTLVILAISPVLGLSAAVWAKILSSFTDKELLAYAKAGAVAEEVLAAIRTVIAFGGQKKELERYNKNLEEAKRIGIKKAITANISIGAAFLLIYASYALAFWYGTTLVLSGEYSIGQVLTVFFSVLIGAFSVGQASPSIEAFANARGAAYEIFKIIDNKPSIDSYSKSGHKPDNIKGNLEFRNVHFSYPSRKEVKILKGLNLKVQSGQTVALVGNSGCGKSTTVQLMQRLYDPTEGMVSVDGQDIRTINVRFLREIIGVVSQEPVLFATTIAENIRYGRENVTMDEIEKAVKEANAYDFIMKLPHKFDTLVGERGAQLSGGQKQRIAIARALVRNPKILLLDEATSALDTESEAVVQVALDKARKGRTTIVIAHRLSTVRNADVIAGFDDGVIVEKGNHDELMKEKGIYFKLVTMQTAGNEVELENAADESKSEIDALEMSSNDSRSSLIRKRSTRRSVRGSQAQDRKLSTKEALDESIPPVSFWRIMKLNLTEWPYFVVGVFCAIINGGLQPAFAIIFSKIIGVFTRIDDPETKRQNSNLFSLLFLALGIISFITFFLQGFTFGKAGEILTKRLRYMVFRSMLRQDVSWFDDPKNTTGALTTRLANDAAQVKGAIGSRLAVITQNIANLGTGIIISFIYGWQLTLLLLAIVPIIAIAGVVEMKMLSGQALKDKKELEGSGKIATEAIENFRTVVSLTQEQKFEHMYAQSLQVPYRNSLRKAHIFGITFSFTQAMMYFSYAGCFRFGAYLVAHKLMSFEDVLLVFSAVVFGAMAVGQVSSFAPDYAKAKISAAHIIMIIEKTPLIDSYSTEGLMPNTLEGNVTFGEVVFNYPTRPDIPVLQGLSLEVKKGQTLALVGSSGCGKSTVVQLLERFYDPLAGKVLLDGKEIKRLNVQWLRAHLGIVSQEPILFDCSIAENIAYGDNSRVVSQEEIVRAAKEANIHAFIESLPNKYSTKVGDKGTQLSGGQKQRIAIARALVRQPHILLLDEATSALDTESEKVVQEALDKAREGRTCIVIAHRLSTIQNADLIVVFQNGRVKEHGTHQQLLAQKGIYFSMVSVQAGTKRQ
T2 sequence (P37288 whole entry): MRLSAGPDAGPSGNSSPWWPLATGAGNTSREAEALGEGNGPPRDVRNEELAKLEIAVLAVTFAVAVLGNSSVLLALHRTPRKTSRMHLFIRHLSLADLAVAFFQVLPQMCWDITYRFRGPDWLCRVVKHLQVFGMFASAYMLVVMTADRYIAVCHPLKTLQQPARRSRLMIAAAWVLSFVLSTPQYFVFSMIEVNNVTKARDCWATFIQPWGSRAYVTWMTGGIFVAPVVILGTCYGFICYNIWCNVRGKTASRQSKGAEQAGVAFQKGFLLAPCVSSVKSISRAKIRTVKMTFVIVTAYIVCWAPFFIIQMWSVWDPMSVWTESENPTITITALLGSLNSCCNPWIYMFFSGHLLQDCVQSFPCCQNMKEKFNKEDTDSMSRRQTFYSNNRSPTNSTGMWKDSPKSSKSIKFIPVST
T3 sequence (P30560 whole entry): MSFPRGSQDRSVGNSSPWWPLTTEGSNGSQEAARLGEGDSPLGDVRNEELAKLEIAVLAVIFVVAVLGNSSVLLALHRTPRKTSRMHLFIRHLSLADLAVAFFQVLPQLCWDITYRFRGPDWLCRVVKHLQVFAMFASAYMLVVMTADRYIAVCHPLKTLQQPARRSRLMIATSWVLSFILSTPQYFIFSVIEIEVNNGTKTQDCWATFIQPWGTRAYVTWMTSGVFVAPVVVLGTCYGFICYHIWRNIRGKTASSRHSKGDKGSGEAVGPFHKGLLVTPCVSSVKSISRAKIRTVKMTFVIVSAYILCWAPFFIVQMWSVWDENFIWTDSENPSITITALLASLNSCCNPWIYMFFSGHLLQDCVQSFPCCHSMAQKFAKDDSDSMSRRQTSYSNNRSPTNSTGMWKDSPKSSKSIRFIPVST

| Compound | IC50 [1] [nM] | IC50 [2] [nM] | antagonist activity to AVP-induced scratching behaviors (Male CD-1 mice) | IC50 (V1a receptors; first study) [nM] | IC50 (V1a receptors; second study) [nM] | efflux ratio at 1 h, 10 μM (MDR1 (P-glycoprotein); [4]) | efflux ratio at 1 h, 10 μM (MDR1 (P-glycoprotein); [5]) | Papp A→B at 1 h, 10 μM (MDR1 (P-glycoprotein); MDR1-MDCK cells) [×10⁻⁶ cm/s] | Papp A→B at 1 h, 10 μM [3] [×10⁻⁶ cm/s] | efflux ratio at 1 h, 10 μM [3] |
| --- | --- | --- | --- | --- | --- | --- | --- | --- | --- | --- |
| Cc1cnc(N2CC3(CN(C(=O)N4c5ccc(Cl)cc5OCC4C)C3)C2)nc1 (single isomer, unassigned) [20-13-A] | ≥ 1000 | ≥ 1000 | – | – | – | – | – | – | – | – |
| CN1Cc2cc(Cl)ccc2-n2c(nnc2[C@H]2CC[C@H](Oc3ccccn3)CC2)C1 [balovaptan, reference compound] | – | – | effective | 10.9 | 13.6 | – | – | – | – | – |
| CC1COc2cc(Cl)ccc2N1C(=O)N1CC2(C1)CN(c1ncccc1F)C2 (single isomer, unassigned) [1-57-B] | < 100 | ≥ 1000 | – | – | – | – | – | – | – | – |
| Cc1nc(N2CC3(CN(C(=O)N4c5ccc(Cl)cc5OCC4C)C3)C2)ncc1F (single isomer, unassigned) [20-7-A] | – | ≥ 1000 | – | – | – | < 1 | < 1 | > 20 | > 20 | < 1 |
| O=C(N1CC2(C1)CN(c1cnccn1)C2)N1CCC(O)c2cc(Cl)ccc21 (single isomer, unassigned) [13-3-B] | – | < 100 | – | – | – | > 3 | > 3 | > 20 | > 20 | 1 to 2 |
